The values below come from ChEMBL document CHEMBL5052821, “Galactokinase inhibitors for the treatment and prevention of associated diseases and disorders” (2019).

The subject of one series is Bacteria. The series is described as follows: Inhibition of bacterial CDP-ME kinase assessed as ATP depletion up to 57 uM measured by bioluminescent kinase Glo assay. The following applies: dose microM <=57. (Kinase-Glo reads ATP consumption through a luciferase reaction.)
The test system of another series is HEK293. The experiment in a line: Cytotoxicity against human HEK293 cells measured after 48 hrs by Cell Titer Glo assay. Type of series: toxicity, cell-based. To be noted: hek293, 48 h. (In general: In ATP-based viability assays light output follows the ATP content of the culture.)

Activity calls are given as the source filed them. No rule for the calls is given here.

`O=C1CCCC2=C1C1(CCCC1)N=C(Nc1nc3cc(Br)ccc3o1)N2`: the inhibition result in the series on Bacteria was “inactive”. Moreover, the Activity result in the series with HEK293 is “Non-Toxic”.
Consider `O=C1CCCC2=C1C1(CCC1)N=C(Nc1nc3ccccc3o1)N2`, for which the inhibition entry in the series with Bacteria is “inactive”. Besides, the Activity result in the series with HEK293 is “Non-Toxic”.
Taken in the same sequence, the figures for `O=C1CCC2=C1C1(CCCC1)N=C(Nc1nc3ccccc3o1)N2` were “inactive” and “Non-Toxic”.
For `Cc1ccc2oc(NC3=NC4(CCCC4)C4=C(CCCC4=O)N3)nc2c1`, in the series on Bacteria, the inhibition result is “inactive”. In the series on HEK293, the Activity result is “Non-Toxic”.
As to `Cn1c(NC2=NC3(CCCC3)C3=C(CCCC3=O)N2)nc2ccccc21`, the inhibition result in the series with Bacteria was “inactive”. In the series with HEK293, the Activity result is on record as “Non-Toxic”.
Consider `Cc1ccc2nc(NC3=NC4(CCCC4)C4=C(CCCC4=O)N3)oc2c1`, for which the inhibition result with Bacteria is “inactive”. The Activity result in the series on HEK293 is “Non-Toxic”.
As to `O=C1CCCC2=C1C1(CCCC1)N=C(Nc1nc3ccccc3o1)N2`, the inhibition entry with Bacteria is “inactive”. Besides, the Activity result in the series on HEK293 is recorded as “Non-Toxic”.
For `O=C1CCCC2=C1C1(CCCC1)N=C(Nc1nc3cc4ccccc4cc3o1)N2`, the inhibition result with Bacteria is “inactive”. In the series on HEK293, the Activity result is “Non-Toxic”.
